Measured values reported in paper PMC6263802 (Journal of natural products, 2018).
Read-outs that look alike come from different tables or passages of the source.

What was measured:
[1] = biological target: hBChE (Homo sapiens, UniProt P06276); assay: Inhibition of human butyrylcholinesterase with butyrylthiocholine; assay type: biochemical; conditions: for inhibition at 10 µM: read-out: hBChE % Inhibition at 10μM
[2] = biological target: hAChE (Homo sapiens, UniProt P22303); assay: Inhibition of human acetylcholinesterase with acetylthiocholine; assay type: biochemical; conditions: for inhibition at 10 µM: read-out: hAChE % Inhibition at 10μM
[3] = biological target: T1, hCE1 (human liver CE; CES1) (Homo sapiens, UniProt P23141); conditions: read-out: hCE1 (o-NPA) Ki ± SE; parent tanshinones, previously reported; cited from earlier work
T1 sequence (P23141 18-563 limits assumed): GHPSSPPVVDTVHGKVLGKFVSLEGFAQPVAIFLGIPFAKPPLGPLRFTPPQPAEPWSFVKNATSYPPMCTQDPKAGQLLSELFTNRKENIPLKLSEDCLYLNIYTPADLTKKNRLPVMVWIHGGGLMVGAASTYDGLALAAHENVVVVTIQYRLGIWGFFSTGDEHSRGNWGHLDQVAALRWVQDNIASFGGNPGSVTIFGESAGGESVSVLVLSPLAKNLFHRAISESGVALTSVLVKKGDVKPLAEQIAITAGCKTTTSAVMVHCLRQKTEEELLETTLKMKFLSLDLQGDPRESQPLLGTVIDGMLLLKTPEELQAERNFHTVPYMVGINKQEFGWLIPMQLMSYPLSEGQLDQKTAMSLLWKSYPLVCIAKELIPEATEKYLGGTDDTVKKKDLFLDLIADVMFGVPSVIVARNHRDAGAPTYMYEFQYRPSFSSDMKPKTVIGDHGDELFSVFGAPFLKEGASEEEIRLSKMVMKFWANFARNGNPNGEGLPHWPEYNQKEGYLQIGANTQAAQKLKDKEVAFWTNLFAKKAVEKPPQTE

[4] = biological target: T2, hiCE (Homo sapiens, UniProt O00748); assay type: biochemical; conditions: after pre-incubation and removal of the small molecule
T2 sequence (O00748 27-555 limits assumed): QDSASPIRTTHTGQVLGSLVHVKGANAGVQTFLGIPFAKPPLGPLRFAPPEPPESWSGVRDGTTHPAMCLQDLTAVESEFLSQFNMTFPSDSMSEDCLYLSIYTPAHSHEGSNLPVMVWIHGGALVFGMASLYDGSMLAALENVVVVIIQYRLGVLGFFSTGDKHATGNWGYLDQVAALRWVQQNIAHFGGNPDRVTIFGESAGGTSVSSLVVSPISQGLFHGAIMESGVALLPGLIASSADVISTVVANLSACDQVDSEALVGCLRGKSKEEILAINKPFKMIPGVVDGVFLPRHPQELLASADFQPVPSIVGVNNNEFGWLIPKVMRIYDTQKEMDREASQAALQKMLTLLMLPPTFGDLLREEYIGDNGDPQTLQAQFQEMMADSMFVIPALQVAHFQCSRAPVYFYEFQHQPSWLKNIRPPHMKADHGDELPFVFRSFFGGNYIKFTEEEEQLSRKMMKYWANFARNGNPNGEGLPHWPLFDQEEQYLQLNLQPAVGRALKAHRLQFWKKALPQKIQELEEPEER

[5] = biological target: T3, hCE1 (Homo sapiens, UniProt P23141); assay: MS analysis of hCE1 protein after incubation with small molecules; conditions: for Increase in mass of hCE1 after incubation: all three enzyme species, 4 at 10μM
T3 sequence (P23141 18-563 limits assumed): T1 sequence (P23141 18-563 limits assumed)

[6] = biological target: T4, hiCE (human intestinal CE; CES2) (Homo sapiens, UniProt O00748); assay: Inhibition of hiCE with o-NPA as substrate, spectrophotometric assay; assay type: biochemical; conditions: compared to the parent tanshinone
T4 sequence (O00748 27-555 limits assumed): T2 sequence (O00748 27-555 limits assumed)

[7] = biological target: T3, hCE1; assay type: biochemical; conditions: after pre-incubation and removal of the small molecule
[8] = biological target: T1, hCE1 (human liver CE; CES1); assay: Inhibition of hCE1 with o-nitrophenyl acetate; assay type: biochemical; conditions: for hCE1 (o-NPA) Fold increase in potency: compared to the parent tanshinone
[9] = system: U373MG cells expressing hCE1; assay: Intracellular inhibition of oseltamivir hydrolysis; assay type: cell-based, human; conditions: 10μM inhibitor 10 min, then oseltamivir 20μM 30 min; versus DMSO
[10] = hCE1 species of 61374 Da (first glycoform)
[11] = hCE1 species of 61537 Da (second glycoform)
[12] = hCE1 species of 61698 Da (third glycoform)

Chain of hBChE (P06276 29-602): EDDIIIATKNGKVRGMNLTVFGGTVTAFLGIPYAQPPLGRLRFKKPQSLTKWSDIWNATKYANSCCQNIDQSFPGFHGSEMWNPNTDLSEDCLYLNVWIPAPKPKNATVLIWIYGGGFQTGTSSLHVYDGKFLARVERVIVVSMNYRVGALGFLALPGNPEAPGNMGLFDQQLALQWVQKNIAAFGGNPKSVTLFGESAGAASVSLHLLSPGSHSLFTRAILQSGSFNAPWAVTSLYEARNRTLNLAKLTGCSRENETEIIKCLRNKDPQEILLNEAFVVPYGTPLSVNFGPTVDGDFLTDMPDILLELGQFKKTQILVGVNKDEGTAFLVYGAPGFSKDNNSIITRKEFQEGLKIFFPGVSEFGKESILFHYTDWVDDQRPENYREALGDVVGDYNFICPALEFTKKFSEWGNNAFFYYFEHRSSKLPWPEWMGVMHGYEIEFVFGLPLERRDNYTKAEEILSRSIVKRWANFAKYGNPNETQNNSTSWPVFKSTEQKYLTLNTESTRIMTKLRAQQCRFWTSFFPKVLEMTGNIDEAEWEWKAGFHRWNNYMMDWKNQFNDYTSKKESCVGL
Chain of hAChE (P22303 32-614): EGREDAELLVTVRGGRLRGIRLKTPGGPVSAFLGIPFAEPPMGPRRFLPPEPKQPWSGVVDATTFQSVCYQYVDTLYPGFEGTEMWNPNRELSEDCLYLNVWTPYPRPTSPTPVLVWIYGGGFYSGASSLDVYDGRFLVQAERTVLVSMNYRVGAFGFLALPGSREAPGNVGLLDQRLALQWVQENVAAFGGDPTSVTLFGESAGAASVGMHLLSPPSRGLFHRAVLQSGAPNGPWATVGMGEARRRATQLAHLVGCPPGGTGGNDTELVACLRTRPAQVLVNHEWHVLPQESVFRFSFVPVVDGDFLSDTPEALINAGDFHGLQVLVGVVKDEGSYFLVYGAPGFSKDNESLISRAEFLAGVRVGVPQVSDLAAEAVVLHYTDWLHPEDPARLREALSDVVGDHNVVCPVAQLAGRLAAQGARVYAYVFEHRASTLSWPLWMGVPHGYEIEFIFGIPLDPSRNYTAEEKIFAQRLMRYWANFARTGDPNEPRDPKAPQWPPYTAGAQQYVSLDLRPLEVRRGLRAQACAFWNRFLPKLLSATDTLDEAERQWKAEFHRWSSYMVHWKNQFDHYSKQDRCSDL

| SMILES | Irreversibility of hiCE inhibition [4] | hiCE (o-NPA) Fold increase in potency [6] | Irreversibility of hCE1 inhibition [7] | hCE1 (o-NPA) Fold increase in potency [8] | Reduction in oseltamivir hydrolysis (oseltamivir carboxylate formed) [9] | IC50 [1] [µM] | inhibition at 10 µM [1] [%] | IC50 [2] [µM] | inhibition at 10 µM [2] [%] | further results |
| --- | --- | --- | --- | --- | --- | --- | --- | --- | --- | --- |
| Cc1cccc2c3c(ccc12)C1=C(C(=O)C3=O)[C@@H](C)CO1 [Compound 5, Dihydro-tanshinone] | – | – | – | – | – | – | – | – | – | hBChE % Inhibition at 10μM ([1]; 10μM inhibitor): 5%; IC50 ([1]; read-out: hBChE IC50 ± SE, BTCh substrate): > 10 µM; hAChE % Inhibition at 10μM ([2]; 10μM inhibitor): 84%; IC50 ([2]; read-out: hAChE IC50 ± SE, ATCh substrate): 1.95 µM; Ki [3]: 0.398 ± 0.066 µM |
| Cc1cccc2c1ccc1c3c(c(=O)oc(=O)c12)[C@@H](C)CO3 [Compound 6, 4,9-dimethyl-4,5-dihydrofuro[3,2-c]naphtho[2,1-e]oxepine-1,3-dione] | irreversible inhibition | 193 fold | irreversible inhibition | 111 fold | – | – | – | – | – | Observed mass of adduct [5, 10]: 288 Da; Observed mass of adduct [5, 11]: 289 Da; Observed mass of adduct [5, 12]: 282 Da |
| C[C@H]1COc2c1c(=O)oc(=O)c1c3c(ccc21)C(C)(C)CCC3 [Compound 8, 4,9,9-trimethyl-4,5,9,10,11,12-hexahydrofuro[3,2-c]naphtho[2,1-e]oxepine-1,3-dione] | irreversible inhibition | 188 fold | irreversible inhibition | 194 fold | more than 70% | – | – | – | – | Irreversibility of hiCE inhibition ([4]; listed as B): irreversible enzyme inhibition; Irreversibility of hCE1 inhibition ([7]; listed as B): irreversible enzyme inhibition; IC50 [8]: 0.00133 µM |
| Cc1cccc2c1ccc1c3occ(C)c3c(=O)oc(=O)c21 [Compound 2, 4,9-dimethylfuro[3,2-c]naphtho[2,1-e]oxepine-1,3-dione] | irreversible inhibition | 17,744 fold | irreversible inhibition | 10,937 fold | more than 70% | – | – | – | – | – |
| O=S(=O)(F)Cc1ccccc1 [PMSF, phenylmethanesulfonyl fluoride, reference compound] | – | – | – | – | – | – | – | – | – | Increase in mass of hCE1 after incubation [5]: 154–157 Da |
| Cc1coc2c1C(=O)C(=O)c1c-2ccc2c1CCCC2(C)C [Compound 3, Tanshinone IIA] | – | – | – | – | – | > 10 | 1 | > 10 | 4 | – |
| Cc1coc2c1c(=O)oc(=O)c1c3c(ccc12)C(C)(C)CCC3 [Compound 4, 4,9,9-trimethyl-9,10,11,12-tetrahydrofuro[3,2-c]naphtho[2,1-e]oxepine-1,3-dione] | irreversible inhibition | 1,750 fold | irreversible inhibition | 3,626 fold | more than 70% | – | – | – | – | Irreversibility of hiCE inhibition ([4]; listed as A): irreversible enzyme inhibition; Increase in mass of hCE1 after incubation [5]: 308–312 Da; Observed mass of adduct [5, 10]: 312 Da; Observed mass of adduct [5, 11]: 308 Da; Observed mass of adduct [5, 12]: 309.8 Da; Irreversibility of hCE1 inhibition ([7]; listed as A): irreversible enzyme inhibition; IC50 [8]: 0.00106 µM |
| C[C@H]1COC2=C1C(=O)C(=O)c1c2ccc2c1CCCC2(C)C [Compound 7, Crypto-tanshinone] | – | – | – | – | – | > 10 | 1 | 6.41 | 44 | – |
| Cc1coc2c1C(=O)C(=O)c1c-2ccc2c(C)cccc12 [Compound 1, Tanshinone I] | – | – | – | – | – | > 10 | 6 | > 10 | 10 | – |
